Measurements: US20090220566A1, “BIOIMPLANTS FOR USE IN TISSUE GROWTH” (priority 2006, published 2009)

System: tissue ingrowth, specifically angiogenesis and vascularization
Conditions: for conclusion on stimulation of wound healing: selenium at 0.25 ng/mm^3 of the implant, cobalt at 0.45 ng per mm^3 of the implant; for wound tissue / tissue ingrowth in the pores (histological sections): 3 μl per half implant of 70 μM salt in Hank's balanced salt solution on the closed pore
Experimental: Brushite and hydroxyapatite cuboid bioimplants (434±4 mg dry weight) with a 2D branched structure (Y-shape pore) were produced by cement printing following a method previously developed (Hölzel, 2005). The pore was 1.31 mm diameter and open in the middle of one smaller face and decreased in diameter to 1 mm as it branched in the centre of the block. One branch emerged on an adjacent face while the other was a ‘blind’ closed pore. 5 μl of 70 μM copper sulphate solution was deposited at the end of the blind closed pore of the Y as represented in FIG. 2B. This solution thus contained a total of […] of copper sulphate, i.e. 22 ng of copper ions. It was absorbed onto a small localised volume ca 5 mm^3, of the implant of dimensions 8×8×4 mm, (approximately 250 mm^3). This copper thus represented 88 ng per cm^3.
Brushite and hydroxyapatite materials were implanted in animals for 15 days in order to observe tissue ingrowth, specifically angiogenesis and vascularization. In order to facilitate observation of tissue ingrowth the implants were made in two mirror image halves that keyed into one another and split the pore cavity along its symmetrical axis (FIG. 2). A 5 μl solution of copper sulfate at low concentration (0.07 mM) was deposited at the end of the closed pore, dried, and implanted in the abdominal cavity (i.e., intraperitoneally) in mice for 15 days. The retrieved implants were opened and examined for tissue ingrowth (FIG. 2C). […] This is in comparison to control implants with no adsorption of copper (FIG. 2D).
Similar to the implants with copper as described above, solutions (3 μl per half implant) of manganese chloride, sodium selenium, silver nitrate, zinc chloride, and cobalt chloride diluted in Hank's balanced salt solution (vehicle) were adsorbed on the closed pore on each half. They were used respectively at 70 μM. The final amounts of the metals ranged from 10 to 200 ng per implant. These conditions were compared to vehicle (HBBS) as control and copper (70 μM)
After 15 days of implantation in peritoneal site in mice, the implants were retrieved and histological sections of the tissue ingrowth in the pores were processed.

[1] = 3 μl per half implant of 70 μM salt on the closed pore, 15 days peritoneal site in mice
[2] = 15 days peritoneal site in mice

## [Cl][Co][Cl] [cobalt, cobalt chloride]
[1]
  microvessels by histology: microvessels with transgression of inflammatory cells were observed
  conclusion on stimulation of wound healing: enhances particularly blood vessel formation

## O=S(=O)([O-])[O-].[Cu+2] [copper sulfate]
mouse, in vivo
  blood vessels observed: No blood vessels were observed
  concentrations of copper suitable to encourage endothelial cell growth into a 1.3 mm diameter pore opening at the surface of an implant: below 20 μg/mm^3
  mean blood vessel in-growth distance: 4.3 mm
  mean distance over which blood vessels were observed to grow from the large pore opening to the closed pore end: nearly the entire length
  tissue infiltrating the pore: tissue rich in leukocytes and dead cells
  tissue ingrowth in the pores: vascular tissue

## O=[Se]([O-])[O-].[Na+].[Na+] [selenium, sodium selenium]
[2]
  wound tissue / tissue ingrowth in the pores (histological sections): immature wound tissue
[1]
  orientation of tissue ingrowth towards the closed (loaded) pore: oriented towards the closed pore
  conclusion on stimulation of wound healing: may enhance tissue maturation

## O=[N+]([O-])[O-].[Ag+] [silver, silver nitrate]
[1]
  orientation of tissue ingrowth towards the closed (loaded) pore: no orientation towards the closed pore

## [Cl-].[Cl-].[Zn+2] [zinc, zinc chloride]
[1]
  orientation of tissue ingrowth towards the closed (loaded) pore: no orientation towards the closed pore

## VEGF
mouse, in vivo
  mean blood vessel in-growth distance: 3.7 mm
  mean distance over which blood vessels were observed to grow from the large pore opening to the closed pore end: nearly the entire length

## manganese chloride
[2]
  wound tissue / tissue ingrowth in the pores (histological sections): a bloody tissue was formed in the pores
